We go through three compounds from US11596716B2, “Compounds and matrices for use in bone growth and repair” (Human BioMolecular Research Institute, priority 2013, dated 2023).

In data set [1] the test system is hMSCs. The data set is described as follows: Transwell migration of hMSCs to calcium phosphate matrix. Format: cell-based, human. The method, then: Human MSC migration to the site of bone injury is an important part of the repair process. […] After 8 hrs, compounds were washed off the cells and cells placed in a traditional transwell migration system. The top reservoir contained serum-free DMEM and the bottom reservoir contained DMEM plus 2% FBS. After incubation overnight, non-migrated cells were removed, migrated cells (stuck in the bottom chamber) were then fixed with 70% EtOH (40 mins) and total migrated cells were counted under a microscope after staining with 1 mg/mL of crystal violet (1 hr). hMSCs treated with compound 2 (500 nM, 8 hr) induced a 10-fold greater cell migration to the matrix than DMSO-pre-treated cells under the conditions described above. In a separate experiment, matrix that was pre-coated with compound 4 (as prepared in Example 5) was placed in the bottom chamber and migration of hMSCs from the top chamber was evaluated. Compound 4-coated matrix induced a 2-fold increase in cell migration to the matrix compared to DMSO-treated cells.
hMSC migration was analyzed by using calcium phosphate matrix that had been pre-adsorbed with compounds 1 or 2 (500 nM, as described in Example 5) and studied in the transwell system (2% serum, described above). Compound 1 and 2 induced 3.5-fold and 1.9-fold more cell migration than non-coated ceramic. While non-limiting, these examples show the utility of the approach for increased cell migration and localization to the calcium phosphate ceramic matrix when compounds of the disclosure are present. Use of compounds of Formula II, IV, and VI to pre-coat the ceramic and also pretreat the cells is also of utility.

The test system of the next data set is Wnt transcription. The data set is described as follows: WNT transcriptional reporter assay (Super(8×)TOPflash luciferase, HEK293T cells). Type of data set: cell-based. The note with it: Homo sapiens, HEK-293T, Wnt3A-expressing vector, 20 hrs, relative to cells treated with DMSO alone, read-out: Wnt transcription potency. The source says:
Commercially available Super(8×)TOPflash vector driven by a (7×) TCF-firefly luciferase response element was transiently transfected into HEK293T cells, together with a TK-driven Renilla luciferase plasmid as an internal control to normalize the luminescence signal and a Wnt3A-expressing vector as the source of pathway activation. HEK293T cells were transfected with plasmids in DMEM plus 10% fetal bovine serum (FBS) for 8 hr, replated to 96-well plates in DMEM plus 10% FBS followed by treatment with compounds (1.6 nM to 5 M) (DMSO final concentration is 0.5%) for 20 hrs. Firefly and Renilla luciferase activities were measured and normalized by the Renilla luciferase values.
On the technique in general: A reporter such as luciferase makes a cellular process visible.

Data set [2] deals with hMSCs. Kind of data set: TLR4/TLR3 mRNA expression ratio by qPCR in hMSCs. The note with it: 500 nM, 8 days. Format: cell-based, human. The text has this: TLRs are modulators of hMSC differentiation. TLRs (TLR1-10) mRNA could be detected by qPCR in hMSCs. TLR4 is a biomarker for osteogenesis and TLR3 is a biomarker for adipogenesis. […]
(In general: In qPCR the cycle at which signal appears reflects the starting amount.)

Data set [3] in a line: Prodrug hydrolysis in phosphate buffer determined by HPLC. Format: physicochemical. The method, then: 3 provided 54 (described in Example 3) through prodrug hydrolysis as determined by HPLC.
Within 5 minutes, the hydrolysis of 3 produced compound 84 (described in Example 3) that is the mono hydrolysis product of the bis(amino acid) pro-drug 3. Within 15 minutes, compound 54 that is the fully hydrolyzed product from 3 (and 84) was prominent in solution. By 77 minutes, most of 3 was hydrolyzed while compound 84 and compound 54 persisted.

Data set [4] concerns hMSCs. The data set is described as follows: Oil Red O staining (adipogenesis) in hMSCs. Type of data set: cell-based, human. The settings on record: for effect on adipogenesis, densitometry of cell culture images: 500 nM every 48 hr for 25 days, TCP 5 mg/mL; for adipogenesis (Oil Red O staining) compared to vehicle-treated hMSCs: presence or absence of matrix, 25 days. The method, then: Oil Red O Staining: Oil Red O (ORO, 1-(2,5-dimethyl-4-(2-5-dimethylphenyl) phenyldiazenyl) azonapthalen-2-ol) was used to stain for the presence of adipocytes. An ORO solution was prepared to afford a 0.03% final concentration in dH2O. hMSCs were cultured as described above for Alizarin Red Staining (Example 7) in 48-well plates. On day 25 of cell incubation, cells were fixed with 4% formaldehyde for 40 mins at room temperature. Cells were stained for 1 hr followed by washes with dH2O (1 mL) until the wash water was clear (without red elutes). Cell culture images were taken under a microscope and quantified by densitometry.

The subject of data set [5] is Human embryonic stem cells E15 (hESCs). Kind of data set: qPCR of TLR4/TLR3 ratio and Collagen I in human embryonic stem cells E15. Format: cell-based. The note with it: 500 nM, 8 days. The method, then: Human embryonic stem cells E15 (hESCs) obtained from ATCC with less than 15 passages were cultured at 37° C. in 5% CO2 in DMEM media supplemented with 15% heat inactivated FBS and 1× GlutaMax. TLRs are biomarkers of stem cell differentiation. TLR4 expression is an osteogenic biomarker and TLR3 expression is an adipogenic biomarker. […]

Data set [6] deals with hMSCs. The data set is described as follows: Alcian Blue staining (chondrogenesis) in hMSCs. Type of data set: cell-based, human. The settings on record: 25 days; for effect on chondrogenesis, densitometry of cell culture images: 500 nM, TCP 5 mg/mL; for chondrogenesis (Alcian Blue staining) compared to vehicle-treated hMSCs: presence or absence of matrix. The protocol:
Alcian Blue Staining: Alcian Blue staining was used to stain for the presence of chondrocytes. Alcian Blue solution (1% wt/volume, acetic acid, pH 2.5). hMSCs were cultured as described above for the Alizarin Red S Staining assay (Ex. 7) in 48-well plates. After 25 days of cell culture, cells were fixed with 4% formaldehyde (40 mins) at room temperature, stained for 1 hr followed by washing with dH2O (1 mL) until water was clear (without blue elutes). Cell culture images were taken under a microscope and quantified by densitometry.

On to `CC(=O)N1c2ccc(C)cc2[C@H](Nc2ccc(C)cc2)C[C@@H]1C` (relative stereo) [Compound 1, cis-1-acetyl-2,6-dimethyl-N-(p-methylphenyl)-1,2,3,4-tetrahydroquinolin-4-amine], for which the “cell migration to matrix pre-adsorbed with compound versus non-coated ceramic” value with hMSCs [1] (500 nM, transwell, 2% serum) is recorded as 3.5 fold. The EC50 with Wnt transcription is less than 15 nM. Besides, the “TLR4/TLR3 ratio, compound alone” value with hMSCs [2] is on record as “modest increase”.
In the case of `CC(C)[C@H](N)C(=O)Oc1ccc(C=CC(=O)C=C(O)C=Cc2ccc(OC(=O)[C@@H](N)C(C)C)cc2)cc1` [Compound 3, (2S,2′S)—O,O′-(3-hydroxy-5-oxohepta-1,3,6-triene-1,7-diyl)bis(4,1-phenylene) bis(2-amino-3-methylbutanoate)], in data set [3] (pH 6.5 PBS), the persistence of compound is not below 77 min, the “time until compound 54 (fully hydrolyzed product) was prominent in solution” value is not above 15 min and the “time until hydrolysis produced compound 84 (mono hydrolysis product)” value is not above 5 min. The “persistence for over an hour in pH 7.5 buffer” value in data set [3] (pH 7.5 buffer, versus pH 6.5 phosphate buffer (10 mM)) is “not in pH 7.5 buffer”. Further, in the data set with hMSCs [4], the “effect on adipogenesis, densitometry of cell culture images” value is “modestly inhibitory to adipogenesis” and the “adipogenesis (Oil Red O staining) compared to vehicle-treated hMSCs” value was “no increase in adipogenesis”. Also, the “increase of TLR4/TLR3 ratio in hESCs” value in data set [5] was 2 fold. Besides, the “TLR4/TLR3 ratio, compound alone” value with hMSCs [2] is “modest increase”. For the same compound, in the data set with hMSCs [6], the “effect on chondrogenesis, densitometry of cell culture images” value is given as “modestly inhibitory on chondrogenesis” and the “chondrogenesis (Alcian Blue staining) compared to vehicle-treated hMSCs” value was “no increase in chondrogenesis”.
For `CC(C)[C@H](N)C(=O)Oc1ccc(/C=C/C(O)=C2\CCC/C(=C\c3ccc(OC(=O)[C@@H](N)C(C)C)cc3)C2=O)cc1` [Compound 4, 4-((1E,3Z)-3-(3-((E)-4-((L-valyl)oxy)benzylidene)-2-oxocyclohexylidene)-3-hydroxyprop-1-en-1-yl)phenyl L-valinate], in the data set on hMSCs [4], the “effect on adipogenesis, densitometry of cell culture images” value is “modestly inhibitory to adipogenesis” and the “adipogenesis (Oil Red O staining) compared to vehicle-treated hMSCs” value was “no increase in adipogenesis”. In data set [5], the “increase of TLR4/TLR3 ratio in hESCs” value is given as 2 fold. Moreover, the “cell migration to compound-coated matrix compared to DMSO-treated cells” value in the data set with hMSCs [1] (matrix pre-coated with compound in bottom chamber) came to 2 fold. In addition, in the data set with hMSCs [6], the “effect on chondrogenesis, densitometry of cell culture images” value is listed as “modestly inhibitory on chondrogenesis” and the “chondrogenesis (Alcian Blue staining) compared to vehicle-treated hMSCs” value is “no increase in chondrogenesis”.
